Assay results as given in US20180221306A1, “PHARMACEUTICAL COMPOSITIONS OF 5-HYDROXY-2-METHYLNAPHTHALENE-1,4-DIONE” (PellFiCure Pharmaceuticals, Inc., priority 2016, published 2018).

Legend:
PTEN-P2 mouse cells = assay: Orthotopic prostate cancer survival study, PTEN-P2 cells in Fox1/Nu mice; type: in vivo
Description: (§1) Orthotopic injection of PTEN-P2 and TRAMP-C2 for survival studies: Mice were anaesthetized and an incision was made through the skin and peritoneum. A total of 30,000 cells were suspended in Matrigel and slowly injected into the dorsal lobe of the prostate using a 30-gauge needle. Matrigel was used to prevent the leakage of cells out of the site of injection. A Q-tip was held over the injection site for 1 min to prevent bleeding and spill after removal of the needle. The abdominal wall was closed by surgical silk sutures.
(§2) Fox1/Nu or C57BL/6J mice were used as recipients for PTEN-P2 and TRAMP-C2 cells, respectively. Mice were surgically castrated 6 weeks later, when tumors were established, and Compound I treatment was initiated 4-5 days later. The number of days mice lived following treatment initiation was recorded for each animal. A few mice were found dead upon daily inspection, while others were euthanized in agreement with our IACUC regulations, including mice showing weight losses of more than 15% and mice showing signs of pain though posture and lack of grooming were euthanized.
An orthotopic model of prostate cancer in which 30,000 PTEN-P2 mouse cells were injected into the prostate of Fox1/Nu mice was used. Mice were castrated 5 weeks after the PTEN-P2 mouse cells were injected into the prostate, which allowed the tumors to become established. […] The number of days mice lived following treatment initiation was recorded for each animal.

TRAMP-C2 tumor cells = assay: Orthotopic prostate cancer survival study, TRAMP-C2 cells in C57BL/6 mice; type: in vivo, mouse; conditions: 1 mg/kg per oral plus castration; p<0.001
Description: as §1, §2
A second study, shown in FIG. 6, used cells derived from the transgenic adenocarcinoma of the mouse prostate (TRAMP) model. The TRAMP model was generated through prostate-specific expression of the large T antigen of SV40 in the prostate epithelium. […]

[1] = Single-dose maximum tolerated dose (MTD) study; type: in vivo, rat; conditions: both sexes, Sprague Dawley, rat, in vivo; rats, oral gavage, Compound I in Carrier A
Description: (§3) A single-dose maximum tolerated dose (MTD) phase A study and a 7-day dose range-finding (DRF) phase B study were conducted in Sprague Dawley rats by MPI Research, Inc. (Mattawan, Mich.). A total of 62 males and 62 females rats were assigned to the study, which was performed in accordance with all current regulations. Animals were housed in standard conditions and had ad libitum access to food and water. Healthy animals of each sex were randomized into treatment groups using a standard, by weight, measured value randomization procedure. Compound I was administered by oral gavage, once at each dose level in Phase A (acute), or once daily for 7 consecutive days in Phase B. Oral gavage was chosen because the oral route is the intended route of administration in humans. Animals were observed twice daily for morbidity and mortality and were euthanatized for humane reasons where appropriate. An initial starting dose of 50 mg/kg was used for Phase A. Subsequent doses were increased or decreased based on the response to the preceding dose. […] The dose levels used in Phase B were based on the MTD identified in Phase A.
(§4) A single-dose maximum tolerated dose (MTD) study and a seven consecutive day dose-range finding study were carried out in Sprague Dawley by orally administering a formulation of Compound I in Carrier A. In the MTD phase, doses of 50, 100, 200 and 300 mg/kg were administered once to Sprague Dawley rats by oral gavage. The single-dose MTD of Compound I in rats was found at 100 mg/kg.

Sprague Dawley rats = assay: Single-dose maximum tolerated dose (MTD) study; type: in vivo, rat; conditions: 200 or 300 mg/kg, once, oral gavage
Description: as §3, §4

## CC1=CC(=O)c2c(O)cccc2C1=O [Compound I, 5-hydroxy-2-methylnaphthalene-1,4-dione]
PTEN-P2 mouse cells; oral 1 mg/kg/day in Carrier A plus castration, p=0.01
  Survival, combination with castration vs castration alone: survived significantly longer
PTEN-P2 mouse cells; oral 1 mg/kg/day in Carrier A, p=0.118
  Survival, Compound I alone vs castration alone: not statistically different
PTEN-P2 mouse cells; oral formulation plus castration, p=0.042
  Survival, combination with castration vs untreated control: survived longer
PTEN-P2 mouse cells; p=0.296
  Survival, Compound I alone vs untreated control: not statistically different
TRAMP-C2 tumor cells
  Longer survival of 50% of the combination-treated mice vs castration alone: 200 days
[1]
  MTD: 100 mg/kg
Sprague Dawley rats
  Adverse clinical events: decreased activity, abnormal body carriage and piloerection
  Mortality after acute administration: unscheduled deaths in male rats on Days 1 and 2 but not in females
